ChEMBL document CHEMBL3046948, “Synthesis and SAR investigation of natural phenylpropene-derived methoxylated cinnamaldehydes and their novel Schiff bases as potent antimicrobial and antioxidant agents” (2013)
Converted amounts (≈) assume the structure as drawn. The source made the active and inactive calls. The rule behind the calls is not given here.

What was measured:
Assay type in all cases: functional
Staphylococcus aureus = test: Antimicrobial activity against Staphylococcus aureus MTCC 3160 assessed as growth inhibition after 24 hr by broth microdilution method
Trichophyton rubrum = test: Antimicrobial activity against Trichophyton rubrum MTCC 296 assessed as growth inhibition after 5 days by broth microdilution method
Enterobacter cloacae = test: Antimicrobial activity against Enterobacter cloacae MTCC 509 assessed as growth inhibition after 24 hr by broth microdilution method
Aspergillus niger = test: Antimicrobial activity against Aspergillus niger MTCC 404 assessed as growth inhibition after 5 days by broth microdilution method
Aspergillus sydowii = test: Antimicrobial activity against Aspergillus sydowii MTCC 4335 assessed as growth inhibition after 5 days by broth microdilution method
Escherichia coli = test: Antimicrobial activity against Escherichia coli MTCC 43 assessed as growth inhibition after 24 hr by broth microdilution method
Micrococcus luteus = test: Antimicrobial activity against Micrococcus luteus MTCC 2470 assessed as growth inhibition after 24 hr by broth microdilution method
Burkholderia cepacia = test: Antimicrobial activity against Burkholderia cepacia MTCC 438 assessed as growth inhibition after 24 hr by broth microdilution method
Aspergillus parasiticus = test: Antimicrobial activity against Aspergillus parasiticus MTCC 2797 assessed as growth inhibition after 5 days by broth microdilution method
Candida albicans = test: Antimicrobial activity against Candida albicans MTCC 3017 assessed as growth inhibition after 24 hr by broth microdilution method
Bacillus subtilis = test: Antimicrobial activity against Bacillus subtilis MTCC 121 assessed as growth inhibition after 24 hr by broth microdilution method
Klebsiella pneumoniae = test: Antimicrobial activity against Klebsiella pneumoniae MTCC 109 assessed as growth inhibition after 24 hr by broth microdilution method
Pseudomonas aeruginosa = test: Antimicrobial activity against Pseudomonas aeruginosa MTCC 424 assessed as growth inhibition after 24 hr by broth microdilution method
Pichia kudriavzevii = test: Antimicrobial activity against Pichia kudriavzevii MTCC 231 assessed as growth inhibition after 24 hr by broth microdilution method

| Compound | MIC (Staphylococcus aureus; MTCC 3160, 24 h) [mM] | MIC (Trichophyton rubrum; MTCC 296, 120 h) [mM] | MIC (Enterobacter cloacae; MTCC 509, 24 h) [mM] | MIC (Aspergillus niger; MTCC 404, 120 h) [mM] | MIC (Aspergillus sydowii; MTCC 4335, 120 h) [mM] | MIC (Escherichia coli; MTCC 43, 24 h) [mM] | MIC (Micrococcus luteus; MTCC 2470, 24 h) [mM] | MIC (Aspergillus parasiticus; MTCC 2797, 120 h) [mM] | MIC (Candida albicans; MTCC 3017, 24 h) [mM] | MIC (Bacillus subtilis; MTCC 121, 24 h) [mM] | MIC (Klebsiella pneumoniae; MTCC 109, 24 h) [mM] | MIC (Pichia kudriavzevii; MTCC 231, 24 h) [mM] | MIC (Aspergillus niger) | MIC (Aspergillus parasiticus) | MIC (Staphylococcus aureus) | MIC (Escherichia coli) | MIC (Micrococcus luteus) | MIC (Burkholderia cepacia) | MIC (Bacillus subtilis) | MIC (Pseudomonas aeruginosa) | also measured |
| --- | --- | --- | --- | --- | --- | --- | --- | --- | --- | --- | --- | --- | --- | --- | --- | --- | --- | --- | --- | --- | --- |
| O=CCCc1ccccc1 [DIHYDROCINNAMALDEHYDE] | 14.9 (≈ 2000 µg/mL) | 3.72 (≈ 499 µg/mL) | 7.45 (≈ 1000 µg/mL) | 7.45 (≈ 1000 µg/mL) | 3.72 (≈ 499 µg/mL) | 7.45 (≈ 1000 µg/mL) | 7.45 (≈ 1000 µg/mL) | 14.9 (≈ 2000 µg/mL) | 3.72 (≈ 499 µg/mL) | 7.45 (≈ 1000 µg/mL) | 7.45 (≈ 1000 µg/mL) | 3.72 (≈ 499 µg/mL) | – | – | – | – | – | – | – | – | MIC (Burkholderia cepacia; MTCC 438, 24 h): 14.9 mM (≈ 2000 µg/mL); MIC (Pseudomonas aeruginosa; MTCC 424, 24 h): 7.45 mM (≈ 1000 µg/mL) |
| NYSTATIN | – | – | – | – | – | – | – | – | – | – | – | – | 0.03 mM | 0.06 mM | – | – | – | – | – | – | MIC (Trichophyton rubrum): 0.008 mM; MIC (Aspergillus sydowii): 0.004 mM; MIC (Candida albicans): 0.008 mM; MIC (Pichia kudriavzevii): 0.03 mM |
| COc1ccc(/C=C/C=O)c(Br)c1OC | – | – | – | – | – | – | – | – | – | – | – | – | inactive | inactive | inactive | inactive | inactive | inactive | inactive | inactive | MIC (Trichophyton rubrum): inactive; MIC (Enterobacter cloacae): inactive; MIC (Aspergillus sydowii): inactive; MIC (Candida albicans): inactive; MIC (Klebsiella pneumoniae): inactive; MIC (Pichia kudriavzevii): inactive |
| COc1ccc(C=O)cc1 [ANISALDEHYDE] | 1.83 (≈ 249 µg/mL) | 0.92 (≈ 125 µg/mL) | 14.7 (≈ 2000 µg/mL) | 7.34 (≈ 999 µg/mL) | 1.83 (≈ 249 µg/mL) | 14.7 (≈ 2000 µg/mL) | – | 1.83 (≈ 249 µg/mL) | 3.67 (≈ 500 µg/mL) | 14.7 (≈ 2000 µg/mL) | 14.7 (≈ 2000 µg/mL) | 3.67 (≈ 500 µg/mL) | – | – | – | – | inactive | – | – | inactive | – |
| C=CCc1ccc2c(c1)OCO2 [SAFROLE] | – | 6.16 (≈ 999 µg/mL) | – | – | – | – | – | – | 6.16 (≈ 999 µg/mL) | – | – | 6.16 (≈ 999 µg/mL) | inactive | inactive | inactive | inactive | inactive | inactive | inactive | inactive | MIC (Enterobacter cloacae): inactive; MIC (Aspergillus sydowii): inactive; MIC (Klebsiella pneumoniae): inactive |
| O=C/C=C/c1ccccc1 [CINNAMALDEHYDE] | 1.89 (≈ 250 µg/mL) | 0.47 (≈ 62.1 µg/mL) | 1.89 (≈ 250 µg/mL) | 1.89 (≈ 250 µg/mL) | 3.78 (≈ 500 µg/mL) | 1.89 (≈ 250 µg/mL) | 3.78 (≈ 500 µg/mL) | 3.78 (≈ 500 µg/mL) | 0.47 (≈ 62.1 µg/mL) | 1.89 (≈ 250 µg/mL) | 3.78 (≈ 500 µg/mL) | 0.47 (≈ 62.1 µg/mL) | – | – | – | – | – | – | – | – | MIC (Burkholderia cepacia; MTCC 438, 24 h): 1.89 mM (≈ 250 µg/mL); MIC (Pseudomonas aeruginosa; MTCC 424, 24 h): 1.89 mM (≈ 250 µg/mL) |
| COc1cc(OC)c(OC)cc1/C=C/C=O | – | 8.99 (≈ 2000 µg/mL) | – | – | 4.5 (≈ 1000 µg/mL) | – | 2.25 (≈ 500 µg/mL) | – | 8.99 (≈ 2000 µg/mL) | – | – | 8.99 (≈ 2000 µg/mL) | inactive | inactive | inactive | inactive | – | inactive | inactive | inactive | MIC (Enterobacter cloacae): inactive; MIC (Klebsiella pneumoniae): inactive |
| CC(C)OC(=O)/C=C/c1ccccc1 | – | – | – | – | – | – | – | – | – | – | – | – | inactive | inactive | inactive | inactive | inactive | inactive | inactive | inactive | MIC (Trichophyton rubrum): inactive; MIC (Enterobacter cloacae): inactive; MIC (Aspergillus sydowii): inactive; MIC (Candida albicans): inactive; MIC (Klebsiella pneumoniae): inactive; MIC (Pichia kudriavzevii): inactive |
| C/C=C/c1cc(OC)c(OC)cc1OC [TRANS-ASARONE] | – | 0.6 (≈ 125 µg/mL) | 9.6 (≈ 2000 µg/mL) | 4.8 (≈ 1000 µg/mL) | 2.4 (≈ 500 µg/mL) | – | – | 1.2 (≈ 250 µg/mL) | 0.6 (≈ 125 µg/mL) | – | – | 1.2 (≈ 250 µg/mL) | – | – | inactive | inactive | inactive | inactive | inactive | inactive | MIC (Klebsiella pneumoniae): inactive |
| COc1cc(OC)c(OC)cc1C=O [ASARALDEHYDE] | 5.1 (≈ 1000 µg/mL) | 0.16 (≈ 31.4 µg/mL) | 10.2 (≈ 2000 µg/mL) | 5.1 (≈ 1000 µg/mL) | 5.1 (≈ 1000 µg/mL) | 10.2 (≈ 2000 µg/mL) | 2.55 (≈ 500 µg/mL) | 2.55 (≈ 500 µg/mL) | 2.55 (≈ 500 µg/mL) | 5.1 (≈ 1000 µg/mL) | 10.2 (≈ 2000 µg/mL) | 2.55 (≈ 500 µg/mL) | – | – | – | – | – | – | – | – | MIC (Burkholderia cepacia; MTCC 438, 24 h): 5.1 mM (≈ 1000 µg/mL); MIC (Pseudomonas aeruginosa; MTCC 424, 24 h): 2.55 mM (≈ 500 µg/mL) |
| O=C(O)/C=C/c1ccccc1 [CINNAMIC ACID] | 3.37 (≈ 499 µg/mL) | 0.42 (≈ 62.2 µg/mL) | 6.75 (≈ 1000 µg/mL) | 1.68 (≈ 249 µg/mL) | 1.68 (≈ 249 µg/mL) | 13.5 (≈ 2000 µg/mL) | 6.75 (≈ 1000 µg/mL) | 3.37 (≈ 499 µg/mL) | 0.42 (≈ 62.2 µg/mL) | 6.75 (≈ 1000 µg/mL) | 6.75 (≈ 1000 µg/mL) | 0.84 (≈ 124 µg/mL) | – | – | – | – | – | – | – | – | MIC (Burkholderia cepacia; MTCC 438, 24 h): 6.75 mM (≈ 1000 µg/mL); MIC (Pseudomonas aeruginosa; MTCC 424, 24 h): 13.5 mM (≈ 2000 µg/mL) |
